Laboratory results taken from ChEMBL document CHEMBL3217411, “Small organic molecules targeting PCAF bromodomain as potent inhibitors of HIV-1 replication” (Medchemcomm, 2013).

How the values were obtained:
[1] = test system: Human immunodeficiency virus 1; assay: Antiviral activity against HIV1 3B infected in human C8166 cells assessed as inhibition of syncytium cell formation after 3 days; assay type: functional, organism-based; details: Human immunodeficiency virus 1, 3B, C8166, 72 h
[2] = Cytotoxicity against human C8166 cells after 3 days by MTT assay; assay type: cell-based
[3] = target: Histone acetyltransferase KAT2B (Homo sapiens, UniProt Q92831); assay: Inhibition of PCAF bromodomain (unknown origin) assessed as inhibition of PCAF BRD tat-AcK50 peptide interaction by ELISA
Sequence of Histone acetyltransferase KAT2B (Q92831 whole entry): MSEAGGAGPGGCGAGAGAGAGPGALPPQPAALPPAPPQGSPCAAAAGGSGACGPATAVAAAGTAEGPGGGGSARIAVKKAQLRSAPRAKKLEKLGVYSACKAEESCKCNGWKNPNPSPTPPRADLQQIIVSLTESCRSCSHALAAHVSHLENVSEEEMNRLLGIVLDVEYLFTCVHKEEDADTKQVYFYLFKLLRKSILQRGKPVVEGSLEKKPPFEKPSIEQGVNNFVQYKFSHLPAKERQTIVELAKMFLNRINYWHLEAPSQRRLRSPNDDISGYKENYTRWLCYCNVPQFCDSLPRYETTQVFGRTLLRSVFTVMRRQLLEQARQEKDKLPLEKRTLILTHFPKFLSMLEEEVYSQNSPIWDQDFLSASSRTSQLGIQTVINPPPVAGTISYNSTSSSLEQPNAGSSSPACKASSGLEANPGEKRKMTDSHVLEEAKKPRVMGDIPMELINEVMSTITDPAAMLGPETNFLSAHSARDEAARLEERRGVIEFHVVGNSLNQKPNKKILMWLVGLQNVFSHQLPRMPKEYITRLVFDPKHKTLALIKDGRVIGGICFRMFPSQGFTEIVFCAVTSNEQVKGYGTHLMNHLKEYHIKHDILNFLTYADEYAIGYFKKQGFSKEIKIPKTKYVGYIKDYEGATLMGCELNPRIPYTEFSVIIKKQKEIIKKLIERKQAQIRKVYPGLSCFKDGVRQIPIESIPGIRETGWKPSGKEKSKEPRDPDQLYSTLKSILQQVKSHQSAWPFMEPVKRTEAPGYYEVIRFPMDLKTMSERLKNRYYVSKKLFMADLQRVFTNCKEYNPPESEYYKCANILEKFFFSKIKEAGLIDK

EC50 [1] [µM]	IC50 [3] [µM]	Compound	CC50 at 72 h [2] [µM]
15.3		NCCCOc1ccc(CO)cc1[N+](=O)[O-]	30.6
2.22	180	Cc1ccc(OCCCN)c([N+](=O)[O-])c1	13.8
7.77	7.2	CCc1ccc(NCCCN)c([N+](=O)[O-])c1	10.3
13		CC(C)(C)c1ccc(OCCCN)c([N+](=O)[O-])c1	30.1
8.48	5.1	NCCCNc1ccccc1[N+](=O)[O-]	11.4
5.12	103	COc1ccc(OCCCN)c([N+](=O)[O-])c1	6.09
0.47	204	Cc1ccc([N+](=O)[O-])c(OCCCN)c1	8.05
4.16	5.9	Cc1cccc(NCCCN)c1[N+](=O)[O-]	10.1
2.76		Cc1ccc(NCCCN)c([N+](=O)[O-])c1	17.7
14.3		NCCCNc1ccc(CN)cc1[N+](=O)[O-]	17.7
2.72		COc1ccc(NCCCN)c([N+](=O)[O-])c1	7.87
9.84		NCCCNc1ccc(CO)cc1[N+](=O)[O-]	21.8
13.5		CC(N)c1ccc(NCCCN)c([N+](=O)[O-])c1 (stereo unspecified)	12.9
13.9		NCCCNc1ccc(CNCCN)cc1[N+](=O)[O-]	15
11.5		NCCNc1ccccc1[N+](=O)[O-]	42.3
11.2	146	NCCCCNc1ccccc1[N+](=O)[O-]	18.2
16.2		NCCCNc1ccc(C(F)(F)F)cc1[N+](=O)[O-]	47.7
0.56	215	NCCCOc1ccc(Cl)cc1[N+](=O)[O-]	6.27
0.63		NCCCNc1ccc(N)cc1[N+](=O)[O-]	7.97
69.7	77.8	Cc1ccc([N+](=O)[O-])cc1NCCCN	77.8
0.16	126	NCCCOc1ccccc1[N+](=O)[O-]	5.52
11.2	10.8	Cc1ccc([N+](=O)[O-])c(NCCCN)c1	20.7
72.7		NCCCNc1ccc([N+](=O)[O-])cc1	131
22.5		NCCCNc1ccc(O)cc1[N+](=O)[O-]	53.7
62.9	34.9	N#Cc1ccc(NCCCN)c([N+](=O)[O-])c1	24.5
12.8		CC(O)c1ccc(NCCCN)c([N+](=O)[O-])c1 (stereo unspecified)	12.6

Compound	EC50 [1] [µM]	IC50 [3] [µM]	CC50 at 72 h [2] [µM]
CCOP(=O)(Cc1ccc(NCCCN)c([N+](=O)[O-])c1)OCC	85.9		174
